Assay: Preliminary finding on bioavailability of pure curcumin

Bioavailability: poor
Compound: COc1cc(/C=C/C(=O)CC(=O)/C=C/c2ccc(O)c(OC)c2)ccc1O [Curcumin]
